Source: ChEMBL document CHEMBL2406948, “Skeletal rearrangement of seven-membered iminosugars: synthesis of (-)-adenophorine, (-)-1-epi-adenophorine and derivatives and evaluation as glycosidase inhibitors” (Bioorg Med Chem, 2013)

Assays:
[1] = target: T1, Tissue alpha-L-fucosidase (Bos taurus) (UniProt Q2KIM0); assay: Inhibition of bovine kidney alpha-L-fucosidase at 1000 uM
T1 sequence (whole entry): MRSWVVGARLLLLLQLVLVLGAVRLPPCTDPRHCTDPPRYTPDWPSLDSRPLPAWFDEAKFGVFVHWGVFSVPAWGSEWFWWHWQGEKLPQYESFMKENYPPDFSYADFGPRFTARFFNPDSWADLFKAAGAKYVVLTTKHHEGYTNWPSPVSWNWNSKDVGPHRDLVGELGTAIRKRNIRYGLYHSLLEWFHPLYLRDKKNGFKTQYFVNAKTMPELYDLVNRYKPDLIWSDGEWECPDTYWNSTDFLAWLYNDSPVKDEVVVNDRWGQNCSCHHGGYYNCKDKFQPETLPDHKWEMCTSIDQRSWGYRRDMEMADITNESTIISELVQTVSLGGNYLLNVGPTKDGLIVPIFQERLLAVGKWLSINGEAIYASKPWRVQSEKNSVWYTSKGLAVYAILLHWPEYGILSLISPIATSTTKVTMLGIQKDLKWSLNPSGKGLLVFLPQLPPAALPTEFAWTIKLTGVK

[2] = target: T2, Beta-galactosidase (Bos taurus) (UniProt Q58D55); assay: Inhibition of bovine liver beta-galactosidase at 1000 uM
T2 sequence (whole entry): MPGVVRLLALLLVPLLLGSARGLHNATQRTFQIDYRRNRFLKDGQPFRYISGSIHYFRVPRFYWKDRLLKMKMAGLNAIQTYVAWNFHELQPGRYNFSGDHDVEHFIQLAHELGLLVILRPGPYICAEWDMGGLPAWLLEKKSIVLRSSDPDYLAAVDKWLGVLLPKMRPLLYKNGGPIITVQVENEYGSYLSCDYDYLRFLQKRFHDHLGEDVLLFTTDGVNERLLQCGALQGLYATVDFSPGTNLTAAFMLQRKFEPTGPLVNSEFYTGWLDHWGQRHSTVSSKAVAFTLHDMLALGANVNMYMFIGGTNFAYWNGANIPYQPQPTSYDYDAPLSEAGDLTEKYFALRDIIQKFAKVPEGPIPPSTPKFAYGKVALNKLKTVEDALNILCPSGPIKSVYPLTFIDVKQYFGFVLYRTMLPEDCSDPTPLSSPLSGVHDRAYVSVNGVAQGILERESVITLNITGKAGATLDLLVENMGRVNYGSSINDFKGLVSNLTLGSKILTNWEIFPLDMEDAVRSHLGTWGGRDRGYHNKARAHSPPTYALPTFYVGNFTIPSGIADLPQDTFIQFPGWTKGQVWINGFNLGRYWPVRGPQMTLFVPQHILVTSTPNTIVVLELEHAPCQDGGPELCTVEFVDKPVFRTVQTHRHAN

[3] = target: T3, Glucosylceramidase (Bos taurus) (UniProt Q2KHZ8); assay: Inhibition of bovine liver beta-glucosidase at 1000 uM
T3 sequence (whole entry): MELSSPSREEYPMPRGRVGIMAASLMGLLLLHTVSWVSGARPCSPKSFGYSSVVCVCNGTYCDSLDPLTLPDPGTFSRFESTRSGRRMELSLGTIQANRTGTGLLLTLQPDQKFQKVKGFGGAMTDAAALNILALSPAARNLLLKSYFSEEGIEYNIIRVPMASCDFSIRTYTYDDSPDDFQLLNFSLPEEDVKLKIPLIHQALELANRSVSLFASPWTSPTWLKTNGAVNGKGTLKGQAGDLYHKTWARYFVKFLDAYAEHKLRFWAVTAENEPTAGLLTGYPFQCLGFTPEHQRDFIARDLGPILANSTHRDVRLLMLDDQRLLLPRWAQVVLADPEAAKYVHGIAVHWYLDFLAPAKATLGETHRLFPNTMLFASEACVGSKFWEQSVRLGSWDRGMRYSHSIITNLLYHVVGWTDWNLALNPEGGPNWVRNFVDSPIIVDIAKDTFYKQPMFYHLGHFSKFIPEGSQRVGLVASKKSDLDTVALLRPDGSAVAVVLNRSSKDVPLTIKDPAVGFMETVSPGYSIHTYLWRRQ

[4] = test system: Escherichia coli; assay: Inhibition of Escherichia coli beta-glucuronidase at 1000 uM
[5] = Inhibition of Escherichia coli beta-glucuronidase
[6] = target: T4, Tissue alpha-L-fucosidase (Bos taurus, UniProt Q2KIM0); assay: Inhibition of bovine kidney alpha-L-fucosidase
T4 sequence (Q2KIM0 whole entry): T1 sequence (whole entry)

[7] = target: T5, Beta-galactosidase (Bos taurus, UniProt Q58D55); assay: Inhibition of bovine liver beta-galactosidase
T5 sequence (Q58D55 whole entry): T2 sequence (whole entry)

[8] = Inhibition of Penicillium decumbens alpha-L-rhamnosidase

## CC[C@@H]1N[C@H](CC)[C@H](O)[C@@H](O)[C@@H]1O
[1]
  inhibition: 0%
[2]
  inhibition: 9.7%
[3]
  inhibition: 21.6%
[4]
  inhibition: 12.9%

## CCC[C@@H]1N[C@@H](CO)[C@@H](O)[C@H](O)[C@H]1O
[2]
  inhibition: 26.8%
[3]
  inhibition: 13.2%
[5]
  IC50: 586 µM
[6]
  IC50: 713 µM

## CC[C@H]1N[C@@H](CO)[C@@H](O)[C@H](O)[C@H]1O
[2]
  inhibition: 20.3%
[3]
  inhibition: 32.8%
[6]
  IC50: 208 µM
[4]
  inhibition: 11%

## CC[C@@H]1N[C@@H](CO)[C@@H](O)[C@H](O)[C@H]1O
[2]
  inhibition: 6.5%
[3]
  inhibition: 12.6%
[6]
  IC50: 72 µM
[4]
  inhibition: 7.2%

## CC[C@@H]1NC[C@@H](O)[C@@H](O)[C@H](O)[C@H]1O
[1]
  inhibition: 37.2%
[7]
  IC50: 526 µM
[8]
  IC50: 231 µM
[4]
  inhibition: 18.1%

## CC[C@H]1NC[C@@H](O)[C@@H](O)[C@H](O)[C@H]1O
[1]
  inhibition: 36.7%
[2]
  inhibition: 12.1%
[3]
  inhibition: 24.6%
[4]
  inhibition: 3.1%
